The nature of assay [1]: summary of test results in volunteer subjects, efficacy grades. The assay is classed as in vivo, human. As to conditions: efficacy grade. An excerpt:
Subject 1. Person had multiple red and itchy inflammation, dermatitis, or eczema lesions, which were resistant to conventional treatments including corticosteroids. Subject 2. Person had small red and itchy lesions which were resistant to topical corticosteroid treatment. Subject 3. Person had multiple red and itchy inflammation, dermatitis, or eczema lesions over the body for many years, which were resistant to conventional treatments including corticosteroids. Subject 4. Person had red and itchy inflammation, dermatitis, or eczema lesions for many years, which were resistant to topical corticosteroid treatment. Subject 5. Person had early stage of aging related skin changes on both forearms as indicated by age spots and wrinkled skin caused by solar damage. Subject 6. Person had age spots, keratoses and wrinkles on both forearms caused by intrinsic and extrinsic aging. Subject 7. Person had age spots, and wrinkles on both forearms caused by intrinsic and extrinsic aging. Subject 8. Person had osteoarthritis of both knees with inflammation and pain for more than 4 years, and had only mild transitory relief from conventional treatments. Subject 9. Person had sensitive skin with inflammatory lesions on the body. Subject 12. Person had dermatitis and inflammatory lesions on the left palm. Subject 14. Person had multiple age spots including lentigines and keratosis on their face. Subject 15. Person had psorisis Subject 16. Person had sensitive skin and eczema for more than 40 years
In another embodiment, the volunteer subject topically applied the test compositions containing N-acylpeptide derivatives of the present invention on involved skin or lesions once or twice daily for several weeks or until the involved lesions completely cleared and clinically changed to normal skin. As a control study, the subject also topically applied a vehicle control composition on the involved skin or lesions twice daily for the same period.
In yet another embodiment, the volunteer subject topically applied once or twice daily the test compositions containing N-acylpeptide derivatives of the present invention on the skin site above arthritic joints or painful muscles to provide therapeutic effects for the systemic disorders via topical administration.
In yet another embodiment, the volunteer subject injected intra-articularly into a knee joint a test composition containing a N-acylpeptide derivative of the present invention to improve and reduce arthritic inflammation and pain of the joint.
Some test results are summarized as follows.
DK: Disturbed keratinization AG: Aging related changes of skin, nail and hair DI: Deranged immune disorders and inflammation ND: Nerve disorders CA: Tumors and/or cancers

Assay [2] in a line: topical treatment of chronic dermatoses with scaly skin and itch, clinical evaluation. In kind it is in vivo, human. Conditions: Example 11: subject. The source says:
The subject topically applied twice daily a pentapeptide derivative, N-Ac-L-Ala-L-Leu-L-Lys-L-His-L-Arg-NH2 (SEQ ID NO: 51) 0.2% (w/v) in WEP442, pH 3.4, as prepared in Example 2. […] The treated skin had 80-90% improvement as judged by clinical evaluation.

As to N-Ac-L-Arg-L-Arg-L-Arg-NH2, in assay [1], the “AG: Aging related changes of skin, nail and hair” value (shortened to “AG: Aging related changes of skin”) is reported as 2+ (2+: 50% Efficacy); the “DI: Deranged immune disorders and inflammation” value was 2+ (2+: 50% Efficacy); the “DK: Disturbed keratinization” value is reported as 2+ (2+: 50% Efficacy); the “ND: Nerve disorders” value is recorded as 2+ (2+: 50% Efficacy).
Turning to “N-Ac-L-Ala-L-Leu-L-Lys-L-His-L-Arg-NH2 (Ac-ALKHR-NH2)”, in assay [1], the “AG: Aging related changes of skin” value is 3+ (3+: 75% Efficacy); the “DI: Deranged immune disorders and inflammation” value is listed as 4+ (4+: 95-100% Efficacy); the “DK: Disturbed keratinization” value is listed as 3+ (3+: 75% Efficacy); the “ND: Nerve disorders” value is listed as 3+ (3+: 75% Efficacy). Moreover, the itch entry in assay [2] (0.2% (w/v) in WEP442 pH 3.4 topical) was “stopped within a few minutes”. For the same substance, the “improvement as judged by clinical evaluation” value in assay [2] (right leg, 0.2% (w/v) in WEP442 pH 3.4 twice daily, 2 weeks) is 80-90%.
Take N-Ac-L-Ser-L-Ser-L-Ser-NH2: in assay [1], the “AG: Aging related changes of skin” value was 2+ (2+: 50% Efficacy); the “DI: Deranged immune disorders and inflammation” value is reported as 2+ (2+: 50% Efficacy); the “DK: Disturbed keratinization” value was 2+ (2+: 50% Efficacy); the “ND: Nerve disorders” value was 2+ (2+: 50% Efficacy).
As for “N-Pr-L-Ala-L-Leu-L-Lys-L-His-L-Arg-NH2 (ALKHR; HELM PEPTIDE1{[CCC(=O)[*:2]].A.L.K.H.R.[am]}$$$$V2.0; SMILES CCC(=O)N[C@@H](C)C(=O)N[C@@H](CC(C)C)C(=O)N[C@@H](CCCCN)C(=O)N[C@@H](Cc1c[nH]cn1)C(=O)N[C@@H](CCCNC(=N)N)C(N)=O)”, in assay [1], the “AG: Aging related changes of skin” value is 2+ (2+: 50% Efficacy); the “DI: Deranged immune disorders and inflammation” value is recorded as 2+ (2+: 50% Efficacy); the “DK: Disturbed keratinization” value was 2+ (2+: 50% Efficacy); the “ND: Nerve disorders” value is recorded as 2+ (2+: 50% Efficacy).
With N-Ac-L-Val-L-Val-L-Ala-NH2, in assay [1], the “AG: Aging related changes of skin” value was 2+ (2+: 50% Efficacy); the “DI: Deranged immune disorders and inflammation” value is given as 2+ (2+: 50% Efficacy); the “DK: Disturbed keratinization” value is on record as 2+ (2+: 50% Efficacy); the “ND: Nerve disorders” value is listed as 3+ (3+: 75% Efficacy).
Turning to “N-Bz-L-Ala-L-Leu-L-Lys-L-His-L-Arg-NH2 (ALKHR; HELM PEPTIDE1{[O=C(c1ccccc1)[*:2]].A.L.K.H.R.[am]}$$$$V2.0; SMILES CC(C)C[C@H](NC(=O)[C@H](C)NC(=O)c1ccccc1)C(=O)N[C@@H](CCCCN)C(=O)N[C@@H](Cc1c[nH]cn1)C(=O)N[C@@H](CCCNC(=N)N)C(N)=O)”, in assay [1], the “AG: Aging related changes of skin” value is 4+ (4+: 95-100% Efficacy); the “DI: Deranged immune disorders and inflammation” value is 3+ (3+: 75% Efficacy); the “DK: Disturbed keratinization” value was 3+ (3+: 75% Efficacy); the “ND: Nerve disorders” value is listed as 2+ (2+: 50% Efficacy).

(Values after patent US20170112748A1, “N-ACYLPEPTIDE DERIVATIVES AND THEIR USES” (NeoStrata Company, Inc., priority 2012, published 2017).)
